Drawing on patent publication US20160287710A1 (UNIVERSITY OF UTAH RESEARCH FOUNDATION, priority 2013, published 2016), this text covers solubility for one molecule.

Structures are written as SMILES. Values after ≈ are worked out from the molar mass of the structure shown.

The data set is described as follows: Solubility of progesterone in glycol chitin solutions (reverse-phase HPLC). It counts as physicochemical. The settings on record: aqueous with cosolvent or surfactant or cyclodextrin. The procedure: A mixture of methanol/water (80:20; v/v) was used, as the mobile phase at a flow rate of 1 mL per minute. […] FIG. 1.

For orientation: solubility means how much of the substance goes into solution per volume. Molecule `CC(=O)[C@H]1CC[C@H]2[C@@H]3CCC4=CC(=O)CC[C@]4(C)[C@H]3CC[C@]12C` [Progesterone] gave a solubility at 24 h (5 wt % glycol chitin solution, 4 °C, thermodynamic from solid) of 148 ± 13.8 µg/mL (≈ 472 µM). For the same molecule, the solubility (in a mixture of PEG-400/water (50:50 v/v)) was about 200 µg/mL (≈ 636 µM).
